Data set [1] in a line: Solubility test of paliperidone with ionizable compound (citric acid) and amphiphilic compound (SoluPlus). It counts as physicochemical. As to conditions: for solubility: room temperature. The method, then:
A solubility test was performed to quantify the synergistic effects provided by the combination of an ionizable polymer and an amphiphilic compound. In this Example the ionizable compound was citric acid and the amphiphilic compound was SoluPlus®.

The conditions of data set [2]: amine drug, cited from earlier work.

The structures appear in SMILES notation. Like-named read-outs stand apart in the source and are kept apart here.

As usually defined, the solubility is how much of the substance goes into solution per volume. As usually defined, the pKa is the negative logarithm of the acid dissociation constant.

Turning to `Cc1nc2n(c(=O)c1CCN1CCC(c3noc4cc(F)ccc34)CC1)CCCC2O` (stereo not drawn) [Paliperidone], in data set [1] (10% Soluplus + 10% citric acid vs 10% citric acid alone), the “solubility higher in solution containing ionizable compound and amphiphilic polymer compared to ionizable compound without amphiphilic polymer” value came to 34.3%. Moreover, the solubility came to 241 mg/mL in data set [1] (aqueous buffer, in 10% Citric Acid Aqueous Solution); 0.6 mg/mL in data set [1] (aqueous with cosolvent or surfactant or cyclodextrin, in 10% Soluplus Aqueous Solution); 324 mg/mL in data set [1] (aqueous with cosolvent or surfactant or cyclodextrin, in 10% Soluplus and 10% Citric Acid Aqueous Solution). The pKa is listed as 8.2 in data set [2] (first pKa value) and 8.6 in data set [2] (second pKa value).

Turning to `Cc1cc2c(s1)Nc1ccccc1N=C2N1CCN(C)CC1` [Olanzapine], the pKa was 5 in data set [2] (first pKa value) and 7.4 in data set [2] (second pKa value).

For `CCOc1ccccc1OCCN[C@H](C)Cc1ccc(OC)c(S(N)(=O)=O)c1` [Tamsulosin], the pKa in data set [2] (second pKa value) is recorded as 10.23.

Values taken from patent US9011912B2, “Extended-release oral dosage forms for poorly soluble amine drugs” (Abon Pharmaceuticals, LLC, priority 2010, dated 2015).
